Like-named read-outs stand apart in the source and are kept apart here.
Experiments:
[1] = literature reports; cited from earlier work
[2] = system: human liver microsomal (HL-mix-13)
[3] = system: human liver microsomal (HL-mix-13); settings: 10 μM substrate, 1 mM GSH, 0.5 μM P450, NADPH generating system, HPLC/SRM

CC(=O)Nc1ccc(O)cc1 [Acetaminophen]
formation of reactive species / reactive intermediates as reported [1]: have been reported to produce such species

CCN(CC)Cc1cc(Nc2ccnc3cc(Cl)ccc23)ccc1O [Amodiaquine]
Response observed using GSH-EE as trapping agent [2]: Yes

NC(=O)N1c2ccccc2C=Cc2ccccc21 [Carbamazepine]
Response observed using GSH-EE as trapping agent [2]: Yes

O=C(O)Cc1ccccc1Nc1c(Cl)cccc1Cl [Diclofenac]
Response observed using GSH-EE as trapping agent [2]: Yes

COc1ccc2c(c1)c(CC(=O)O)c(C)n2C(=O)c1ccc(Cl)cc1 [Indomethacin]
Response observed using GSH-EE as trapping agent [2]: No

CN(CCOc1ccc(CC2SC(=O)NC2=O)cc1)c1ccccn1 (stereo not drawn) [Rosiglitazone]
Response observed using GSH-EE as trapping agent [2]: Yes

CC(=O)Oc1ccccc1C(=O)O [aspirin]
formation of reactive species / reactive intermediates as reported [1]: have not been reported to produce such reactive species

Felbamate
Response observed using GSH-EE as trapping agent ([2]; 10 μM substrate, 1 mM GSH-EE, 0.5 μM P450, NADPH generating system, HPLC/SRM): Yes (A response in the assay was deemed “yes” if there were no co-eluting species contained in control (blank) samples and analyte peak to signal ratio was >10)
Response observed using GSH as trapping agent [3]: No (A response in the assay was deemed “no” if the signal to noise ratio was <10)

From US20040248234A1, “Sensitive and selective in vitro assay for the detection of reactive drug intermediates” (Pfizer Inc, priority 2003, published 2004)
